In ChEMBL document CHEMBL3301546, “MMV Malaria Box yeast growth screening”:

How the values were obtained:
Type in all cases: functional
Saccharomyces cerevisiae [1] = test: MMV: Growth assays were conducted using the prototrophic S. cerevisiae strain JHY222. Each MMV compound (0.1 mM) was tested in minimal media containing ethanol and glycerol as carbon sources (Yeast Nitrogen Base, Ethanol, Glycerol; YNBEG). The growth rate in the presence of each MMV compound was calculated as follows: (i) the first 10 OD readings were averaged and subtracted from all OD readings of the corresponding curve to set the baseline of the growth curve to zero, and (ii) the area under the curve (AUC) was then calculated as the sum of all OD readings. […] A relative growth value was calculated as follows: AUC(DRUG) - AUC(DMSO)/AUC(DMSO); where AUC(DMSO) represents growth measured in a DMSO control well that was on the same microtiter plate of the drug-treated culture.
Saccharomyces cerevisiae [2] = test: (§1) MMV: Growth assays were conducted using the prototrophic S. cerevisiae strain JHY222. Each MMV compound (0.1 mM) was tested in minimal media containing dextrose as a carbon source (Yeast Nitrogen Base, Dextrose; YNBD). The growth rate in the presence of each MMV compound was calculated as follows: (i) the first 10 OD readings were averaged and subtracted from all OD readings of the corresponding curve to set the baseline of the growth curve to zero, and (ii) the area under the curve (AUC) was then calculated as the sum of all OD readings. […] A relative growth value was calculated as follows: AUC(DRUG) - AUC(DMSO)/AUC(DMSO); where AUC(DMSO) represents growth measured in a DMSO control well that was on the same microtiter plate of the drug-treated culture.
Saccharomyces cerevisiae [3] = test: as §1, with “rich” for “minimal”, “Extract, Peptone,” for “Nitrogen Base,”, “YPD).” for “YNBD).”

Row | SMILES | Relative Growth (Saccharomyces cerevisiae [1]) | Relative Growth (Saccharomyces cerevisiae [2]) | Relative Growth (Saccharomyces cerevisiae [3])
1 | O=C(NC1CCN(Cc2ccccc2)CC1)c1cc(C(=O)NC2CCN(Cc3ccccc3)CC2)cc(C(=O)NC2CCN(Cc3ccccc3)CC2)c1 | -0.1727 | 0.0347 | -0.0223
2 | CCOc1ccc(Nc2ccnc3cc(Cl)ccc23)cc1 | 0.0427 | 0.0274 | 0.0185
3 | O=C(Nc1ccc(-c2nc3cc4ccccc4cc3[nH]2)cc1)c1cccc(Br)c1 | 0.0139 | 0.0231 | -0.1256
4 | COc1cccc(C=Cc2nc(=O)c3ccccc3o2)c1OC | -0.4404 | 0.0576 | -0.0201
5 | COc1ccc2nc(N)nc(C)c2c1 | -0.0106 | 0.0302 | -0.0479
6 | COCCn1c(C)nc2ccccc2c1=O | -0.2443 | 0.0485 | -0.0038
7 | O=c1nc(C=Cc2ccc(Cl)cc2)oc2ccccc12 | 0.0415 | 0.0988 | 0.0204
8 | Cc1ccc(S(=O)(=O)c2c(COC(=O)c3cccc(C)c3)c(-c3ccccc3)nn2C)cc1 | -0.0042 | -0.0588 | 0.0124
9 | CCn1c(CN2CCN(Cc3ccccc3)CC2)nc2cc(NC(=O)c3cccs3)ccc21 | -0.226 | -0.4968 | -0.0008
10 | CCc1ccc(Nc2cc(C)nc3nc(C)nn23)cc1 | -0.0737 | -0.1477 | 0.0328
11 | CCCCNCC(O)(c1ccc(Cl)cc1)c1ccc(Cl)cc1 | -0.1782 | -0.2198 | 0.0298
12 | Cc1ccc(C)c(Cn2c(N3CCC(C(=O)NCc4cccs4)CC3)nc3ccccc32)c1 | -0.021 | -0.0285 | -0.4893
13 | Oc1c2c(nc3cc(-c4ccccc4)nn13)CCCC2 | -0.0208 | 0.0363 | -0.4545
14 | CC(C)(C)c1ccc(C(=O)Nc2c3c(nn2-c2cccc(Cl)c2)CSC3)cc1 | -0.291 | -0.3492 | -0.0819
15 | O=C(Nc1ccc(Cl)c(Cl)c1)Nc1ccc(Cl)c(Cl)c1 | 0.0859 | 0.0087 | -0.0117
16 | O=C(Nc1ccc(CN2CCOCC2)cc1)c1ccc(-c2ccc(Br)cc2)o1 | -0.1653 | -0.3783 | -0.0599
17 | CCCOCc1cc(CN2CCN(c3cccc(Cl)c3)CC2)c(O)c2ncccc12 | -0.1694 | -0.0021 | -0.0331
18 | Cc1ccc(-c2cc(C(=O)Nc3ccc(S(=O)(=O)N4CCCCC4)cc3)[nH]n2)c(O)c1 | -0.0163 | -0.0309 | -0.07
19 | COc1ccc(Nc2nc(N/N=C/c3ccc(O)cc3)nc(Nc3ccc([N+](=O)[O-])cc3)n2)cc1 | 0.0812 | 0.2735 | 0.0149
20 | COc1ccc(CCNC(=O)c2cc(S(=O)(=O)N3CC(C)CC(C)C3)ccc2Sc2ccc(F)cc2)cc1OC (stereo not drawn) | -0.0984 | -0.1001 | -0.1625
21 | CCOc1cc2c(cc1OCC)C(c1cc(Cl)ccc1O)NCC2 (stereo not drawn) | -0.522 | 0.0319 | -0.0098
22 | Cc1ccc(Cn2c(N3CCC(C(=O)NCc4cccs4)CC3)nc3ccccc32)cc1 | -0.1621 | -0.0044 | -0.105
23 | COc1ccc(-n2ccnc2SCC(=O)Nc2cc(C)ccc2C)c(OC)c1 | 0.0762 | -0.0529 | -0.0469
24 | CCC(=O)Nc1nnc(Cc2ccc(OC)c(OC)c2)s1 | -0.1225 | -0.019 | -0.0143
25 | CC1CC(C)CN(C(=O)c2ccc(Cl)cc2Cl)C1 (stereo not drawn) | -0.0083 | -0.0098 | 0.0159
26 | CCN(CC)CCNc1ncnc2c1[nH]c1ccc(Br)cc12 | 0.0355 | 0.101 | -0.0425
27 | O=C1c2ccc3c4c(ccc(c24)C(=O)N1CCCCO)C(=O)N(CCCCO)C3=O | -1.0287 | -0.7093 | -0.136
28 | Cn1c(=O)c2cc(C(=O)NCCCN3CCCCCC3)sc2c2ccccc21 | 0.0018 | -0.1099 | -0.0314

Row | SMILES | Relative Growth (Saccharomyces cerevisiae [1]) | Relative Growth (Saccharomyces cerevisiae [2]) | Relative Growth (Saccharomyces cerevisiae [3])
29 | CCOc1cc(Br)c(C(C)NC(=O)c2cccc(OC)c2)cc1OCC (stereo not drawn) | -0.5924 | -0.0511 | 0.0654
30 | CCCc1c(CC)c(=N)c2ccccc2n1C | -0.1464 | -0.0316 | -0.0123
31 | COc1ccc(CNC2CCN(c3ccc(NC(=O)c4cccc(Cl)c4)cc3)CC2)cc1OC | -0.0282 | 0.0343 | -0.0405
32 | Oc1c(CN2CCN(c3ccccc3F)CC2)cc(Br)c2cccnc12 | 0.0379 | 0.0189 | -0.0397
33 | COc1cccc(-c2nn(C)c3sc(C(=O)NCCN4CCN(c5ccccc5F)CC4)cc23)c1 | 0.0691 | -0.0156 | 0.1401
34 | O=C(NCc1ccco1)C1CCN(S(=O)(=O)c2ccc(Br)cc2)CC1 | -0.2359 | -0.0814 | -0.1145
35 | CN1CCN(c2ccc(Nc3c4ccccc4nc4ccccc34)cc2)CC1 | 0.1233 | 0.0237 | 0.031
36 | CCCCNc1nc(NC(C)(C)C)nc(NC(C)(C)C)n1 | -0.1542 | -0.0768 | 0.0174
37 | COc1cccc(C2(C)Nc3ccccc3-c3nc4ccccc4n32)c1 (stereo not drawn) | -0.0556 | -0.0211 | 0.098
38 | CN1C=C(c2ccc3ccccc3n2)C(c2c[nH]c3ccccc23)c2ccccc21 (stereo not drawn) | -0.048 | 0.0287 | -0.6873
39 | Cc1c(C)n(Cc2ccc(F)cc2)c2ccc(C(=O)NCc3ccco3)cc12 | -1.0264 | -0.1235 | -0.5565
40 | Cc1ccccc1OCCSc1nc2ccc(NC(=O)c3cccs3)cc2s1 | -0.9335 | -0.1829 | -0.0038
41 | CCOc1ccc(-c2nc(NC(=O)c3cccc(S(C)(=O)=O)c3)sc2C)cc1 | 0.1015 | 0.0499 | 0.0098
42 | CCOC(=O)C1CCN(C(=O)CN2C(=O)c3ccccc3C2c2c[nH]c3ccccc23)CC1 (stereo not drawn) | -0.5143 | -0.2514 | -1.0024
43 | CCOc1ccc(CCNC(=O)c2cccs2)cc1OCC | -0.3956 | -0.7048 | -1.0059
44 | Cc1cc(N2CCN(C3CCCC3)CC2)n2c(nc3ccccc32)c1C#N | -0.0829 | 0.1152 | -0.0263
45 | Cc1cccc(N2C(=O)C3C(C2=O)C2(c4ccccc4)C(=O)C3(c3ccccc3)C(c3ccc4c(c3)OCO4)=C2c2ccc3c(c2)OCO3)c1 (stereo not drawn) | -0.1627 | -0.0077 | -0.0089
46 | COc1ccc(C(O)(CCC(C)C)C(CN2CCOCC2)c2ccc(Cl)cc2)cc1.Cl (stereo not drawn) | -0.1228 | -0.0398 | -0.0809
47 | CCOC(=O)c1cn(CC)c2cc(N3CCCCC3)c(F)cc2c1=O | -0.2149 | -0.2997 | -0.0482
48 | O=C(NC(c1ccccc1)c1ccc2cccnc2c1O)c1ccccc1 (stereo not drawn) | -0.2626 | -0.0745 | 0.0169
49 | COc1ccccc1CNC(=O)C1c2ccccc2C(=O)N(CC(C)C)C1c1cccs1 (stereo not drawn) | -0.0424 | -0.0764 | -0.1327
50 | OC(Cn1nnc2ccccc21)Cn1c2ccc(Br)cc2c2cc(Br)ccc21 (stereo not drawn) | 0.1229 | 0.0887 | 0.0859
51 | CCOC(=O)c1c(NC(=O)c2ccccc2)sc2c(O)c(CN(CC)CC)ccc12 | 0.1716 | 0.0832 | -0.0008
52 | O=C(Nc1ccc(C23CC4CC(CC(c5ccccc5)(C4)C2)C3)cc1)c1cccs1 | -0.1427 | -0.46 | -1.0024
53 | Br.CCn1c2c(c(=N)c3c1CCC3)CCCC2 | -0.0042 | -0.0127 | -0.135
54 | CC(NCc1ccccc1)c1cc(Cl)ccc1O (stereo not drawn) |  | 0.042 | -0.0386
55 | O=C(Nc1ccsc1C(=O)NC1CCCCC1)c1ccc(F)cc1 |  | 0.1187 | -0.9286
